Measured values taken from patent US9006487B2, “Amine-containing lipids and uses thereof” (Massachusetts Institute of Technology, priority 2005, dated 2015).

tested on: cos-7 cells; assay: DNA transfection: luciferase expression relative to Lipofectamine 2000; format: cell-based; settings: lipid/DNA 2.5 w/w; 300 ng Luciferase DNA per well; luciferase assay after 48 hours
How it was run: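 Lipid/DNA complexes, 300 ng luciferase DNA per well at 2.5-25 w/w lipid:DNA, were formed in sodium acetate/Optimem and added to overnight-seeded cos-7 cells. Luciferase was measured by Bright-Glo luminescence after 48 hours and quantified against an enzyme standard curve. Values are expressed as % of Lipofectamine 2000 at 2.5 w/w.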

In order of falling “Luciferase expression as a percentage of that achieved using Lipofectamine 2000” value (“Luciferase expression as a percentage” below):
1. CCCCCCCCCCCCCCOC(=O)CCN(CCC(=O)OCCCCCCCCCCCCCC)CCC1CCCN1C (stereo not drawn) [LF77]  3.7%
2. CCCCCCCCCCCCCCOC(=O)CCN(CCCN(C)C)CCC(=O)OCCCCCCCCCCCCCC [LF80]  2.5%
3. CCCCCCCCCCCCCCOC(=O)CCN(CCC(=O)OCCCCCCCCCCCCCC)CCN1CCCC1 [LF76]  1.7%
4. CCCCCCCCCCCCCCOC(=O)CCN(CCC(=O)OCCCCCCCCCCCCCC)CCN(CC)CC [LF75]  0.7%
5. CCCCCCCCCCCCCCOC(=O)CCN(CCCN(CC)CC)CCC(=O)OCCCCCCCCCCCCCC [LF81]  0.5%
6. CCCCCCCCCCCCCCOC(=O)CCN(CCN(CCC(=O)OCCCCCCCCCCCCCC)C(C)C)C(C)C [LF62]  0.1%
7. CCCCCCCCCCCCCCOC(=O)CCN1CCCN(CCC(=O)OCCCCCCCCCCCCCC)CC1 [LF70]  0.1%
8. CCCCCCCCCCCCCCOC(=O)CCN(CCC(=O)OCCCCCCCCCCCCCC)C(C)CN(C)C (stereo not drawn) [LF79]  0.1%

same assay, conditions: lipid/DNA 5 w/w; 300 ng Luciferase DNA per well; luciferase assay after 48 hours

In order of rising “Luciferase expression as a percentage” value:
1. CCCCCCCCCCCCCCOC(=O)CCN(CCN(CCC(=O)OCCCCCCCCCCCCCC)C(C)C)C(C)C [LF62]  0.1%
2. CCCCCCCCCCCCCCOC(=O)CCN1CCCN(CCC(=O)OCCCCCCCCCCCCCC)CC1 [LF70]  0.1%
3. CCCCCCCCCCCCCCOC(=O)CCN(CCC(=O)OCCCCCCCCCCCCCC)C(C)CN(C)C (stereo not drawn) [LF79]  0.3%
4. CCCCCCCCCCCCCCOC(=O)CCN(CCC(=O)OCCCCCCCCCCCCCC)CCN(CC)CC [LF75]  1.0%
5. CCCCCCCCCCCCCCOC(=O)CCN(CCCN(CC)CC)CCC(=O)OCCCCCCCCCCCCCC [LF81]  1.6%
6. CCCCCCCCCCCCCCOC(=O)CCN(CCC(=O)OCCCCCCCCCCCCCC)CCN1CCCC1 [LF76]  5.6%
7. CCCCCCCCCCCCCCOC(=O)CCN(CCC(=O)OCCCCCCCCCCCCCC)CCC1CCCN1C (stereo not drawn) [LF77]  25.1%
8. CCCCCCCCCCCCCCOC(=O)CCN(CCCN(C)C)CCC(=O)OCCCCCCCCCCCCCC [LF80]  35.1%

same assay, conditions: lipid/DNA 10 w/w; 300 ng Luciferase DNA per well; luciferase assay after 48 hours

In order of rising “Luciferase expression as a percentage” value:
1. CCCCCCCCCCCCCCOC(=O)CCN(CCN(CCC(=O)OCCCCCCCCCCCCCC)C(C)C)C(C)C [LF62]  0.2%
2. CCCCCCCCCCCCCCOC(=O)CCN1CCCN(CCC(=O)OCCCCCCCCCCCCCC)CC1 [LF70]  0.2%
3. CCCCCCCCCCCCCCOC(=O)CCN(CCC(=O)OCCCCCCCCCCCCCC)C(C)CN(C)C (stereo not drawn) [LF79]  0.3%
4. CCCCCCCCCCCCCCOC(=O)CCN(CCC(=O)OCCCCCCCCCCCCCC)CCN(CC)CC [LF75]  0.7%
5. CCCCCCCCCCCCCCOC(=O)CCN(CCCN(CC)CC)CCC(=O)OCCCCCCCCCCCCCC [LF81]  1.5%
6. CCCCCCCCCCCCCCOC(=O)CCN(CCC(=O)OCCCCCCCCCCCCCC)CCN1CCCC1 [LF76]  9.8%
7. CCCCCCCCCCCCCCOC(=O)CCN(CCC(=O)OCCCCCCCCCCCCCC)CCC1CCCN1C (stereo not drawn) [LF77]  28.2%
8. CCCCCCCCCCCCCCOC(=O)CCN(CCCN(C)C)CCC(=O)OCCCCCCCCCCCCCC [LF80]  35.5%

same assay, conditions: lipid/DNA 15 w/w; 300 ng Luciferase DNA per well; luciferase assay after 48 hours

In order of falling “Luciferase expression as a percentage” value:
1. CCCCCCCCCCCCCCOC(=O)CCN(CCCN(C)C)CCC(=O)OCCCCCCCCCCCCCC [LF80]  34.3%
2. CCCCCCCCCCCCCCOC(=O)CCN(CCC(=O)OCCCCCCCCCCCCCC)CCN1CCCC1 [LF76]  24.3%
3. CCCCCCCCCCCCCCOC(=O)CCN(CCC(=O)OCCCCCCCCCCCCCC)CCC1CCCN1C (stereo not drawn) [LF77]  24.1%
4. CCCCCCCCCCCCCCOC(=O)CCN(CCCN(CC)CC)CCC(=O)OCCCCCCCCCCCCCC [LF81]  4.9%
5. CCCCCCCCCCCCCCOC(=O)CCN(CCC(=O)OCCCCCCCCCCCCCC)CCN(CC)CC [LF75]  1.9%
6. CCCCCCCCCCCCCCOC(=O)CCN1CCCN(CCC(=O)OCCCCCCCCCCCCCC)CC1 [LF70]  0.3%
7. CCCCCCCCCCCCCCOC(=O)CCN(CCC(=O)OCCCCCCCCCCCCCC)C(C)CN(C)C (stereo not drawn) [LF79]  0.3%
8. CCCCCCCCCCCCCCOC(=O)CCN(CCN(CCC(=O)OCCCCCCCCCCCCCC)C(C)C)C(C)C [LF62]  0.1%

same assay, conditions: lipid/DNA 20 w/w; 300 ng Luciferase DNA per well; luciferase assay after 48 hours

In order of falling “Luciferase expression as a percentage” value:
1. CCCCCCCCCCCCCCOC(=O)CCN(CCC(=O)OCCCCCCCCCCCCCC)CCN1CCCC1 [LF76]  22.2%
2. CCCCCCCCCCCCCCOC(=O)CCN(CCCN(C)C)CCC(=O)OCCCCCCCCCCCCCC [LF80]  19.9%
3. CCCCCCCCCCCCCCOC(=O)CCN(CCC(=O)OCCCCCCCCCCCCCC)CCC1CCCN1C (stereo not drawn) [LF77]  17.0%
4. CCCCCCCCCCCCCCOC(=O)CCN(CCCN(CC)CC)CCC(=O)OCCCCCCCCCCCCCC [LF81]  4.6%
5. CCCCCCCCCCCCCCOC(=O)CCN(CCC(=O)OCCCCCCCCCCCCCC)CCN(CC)CC [LF75]  1.7%
6. CCCCCCCCCCCCCCOC(=O)CCN(CCN(CCC(=O)OCCCCCCCCCCCCCC)C(C)C)C(C)C [LF62]  0.4%
7. CCCCCCCCCCCCCCOC(=O)CCN(CCC(=O)OCCCCCCCCCCCCCC)C(C)CN(C)C (stereo not drawn) [LF79]  0.3%
8. CCCCCCCCCCCCCCOC(=O)CCN1CCCN(CCC(=O)OCCCCCCCCCCCCCC)CC1 [LF70]  0.2%

same assay, conditions: lipid/DNA 25 w/w; 300 ng Luciferase DNA per well; luciferase assay after 48 hours

In order of falling “Luciferase expression as a percentage” value:
1. CCCCCCCCCCCCCCOC(=O)CCN(CCC(=O)OCCCCCCCCCCCCCC)CCC1CCCN1C (stereo not drawn) [LF77]  22.1%
2. CCCCCCCCCCCCCCOC(=O)CCN(CCC(=O)OCCCCCCCCCCCCCC)CCN1CCCC1 [LF76]  19.5%
3. CCCCCCCCCCCCCCOC(=O)CCN(CCCN(C)C)CCC(=O)OCCCCCCCCCCCCCC [LF80]  14.8%
4. CCCCCCCCCCCCCCOC(=O)CCN(CCCN(CC)CC)CCC(=O)OCCCCCCCCCCCCCC [LF81]  4.0%
5. CCCCCCCCCCCCCCOC(=O)CCN(CCC(=O)OCCCCCCCCCCCCCC)CCN(CC)CC [LF75]  1.7%
6. CCCCCCCCCCCCCCOC(=O)CCN1CCCN(CCC(=O)OCCCCCCCCCCCCCC)CC1 [LF70]  0.3%
7. CCCCCCCCCCCCCCOC(=O)CCN(CCC(=O)OCCCCCCCCCCCCCC)C(C)CN(C)C (stereo not drawn) [LF79]  0.3%
8. CCCCCCCCCCCCCCOC(=O)CCN(CCN(CCC(=O)OCCCCCCCCCCCCCC)C(C)C)C(C)C [LF62]  0.2%
